These results are taken from publication PMC7777204, “Locking mixed-lineage kinase domain-like protein in its auto-inhibited state prevents necroptosis” (Proceedings of the National Academy of Sciences of the …, 2020).

Where only a bound is given, the exact number is not on record here.

For assay [1], the target named is T1, human MLKL executioner domain (WT) (Homo sapiens, UniProt Q8NB16).
T1 construct: 80 µM MLKL N-terminal executioner domain (residues 1 to 154) was used; GST (thrombin cleavage site) (cleaved yes)
T1 sequence (Q8NB16 1-154): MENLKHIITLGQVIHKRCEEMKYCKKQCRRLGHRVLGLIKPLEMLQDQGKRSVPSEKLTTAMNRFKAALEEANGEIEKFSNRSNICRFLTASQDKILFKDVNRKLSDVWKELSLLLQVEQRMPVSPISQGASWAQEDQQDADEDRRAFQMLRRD
Kind of assay: Functional NMR assay (detachment of α-helix 6), WT. Conditions: for Population of the activated state (pact), α-helix 6 detached: 12 mM NM alone or 500 µM IP6 alone; for Inhibitory effect on MLKL activation (α-helix 6 detachment), in words: 12 mM NM + 500 µM IP6 + 500 µM xanthine compound, compared with Cpd 3 (Fig. 3C). It counts as biochemical. An excerpt:
To test the significance of the additional interaction between α-helix 6 and the four-helix bundle provided by the xanthine compounds stacking to the phenyl ring of Phe148, we used a described functional NMR assay ([12]). Binding of phytic acid (IP6) and the detergent β-D-nonylmaltoside (NM) led to the detachment of α-helix 6, which can be monitored in ^1H,^15N-correlation spectra by the altered chemical shift of the Hε1–Nε1 correlation of Trp133 and the backbone N–H correlation of Ala141 ([12]). […] Adding 12 mM NM or 500 µM IP6 led to the appearance of a second very weak peak reporting on the detached α-helix 6 with a population of the activated state (pact) of 1% and 4%, respectively (Fig. 3). […] Combining 12 mM NM and 500 µM IP6 induced a dramatic increase of the population of the detached state (pact 86%). […] To further validate the importance of the π–π stacking interaction between the xanthine and Phe148 in α-helix 6, we carried out the functional NMR assay with the F148A-mutated variant of MLKL. The removal of the phenyl group induced significant CSPs localized in close proximity to the mutation site, due to the removal of ring currents and, therefore, strong electronic changes. […] MLKL F148A was more sensitive to the addition of 12 mM NM, 500 µM IP6, or the combination thereof. In the spectra in the presence of NM and the combination of NM and IP6, a third Trp133 peak appeared, most likely reporting on a state similar to the active state. […] Thus, the stacking interaction of the xanthine core to Phe148 is vital for the inhibitory activity of these MLKL inhibitors.
Fig. 3. (A and B) The region of the NMR ^1H,^15N-correlation spectra of the MLKL executioner domain (protein concentration: 80 µM) containing the cross-peaks of Trp133 Nε1–Hε1 in the auto-inhibited state where α-helix 6 is attached to the four-helix bundle (inact. state) and in the active, detached state (act. state) are shown. The unliganded state is depicted in black, with 12 mM NM in cyan; 500 µM IP6 in orange; 500 µM Cpd 3 in blue; 12 mM NM and 500 µM IP6 in red; and 12 mM NM, 500 µM IP6, and 500 µM Cpd 3 in green. The spectra depicted in A are measured with the WT protein and in B with the F148A variant. […] Dark gray bars correspond to the WT, while light gray bars correspond to the F148A variant. The asterisk means that no active conformation could be detected. Double asterisks indicate data not determined.
For the functional NMR assay ^1H,^15N-correlation spectra were recorded on a Bruker Avance III HD 600-MHz NMR spectrometer equipped with a cryogenic QCI probe in 2.5-mm NMR tubes at 298 K. Spectra were recorded with 64 complex points in the indirect dimension, 96 scans, and an interscan delay of 2 s. For the samples, 80 µM MLKL N-terminal executioner domain (residues 1 to 154) was used in a 20 mM sodium phosphate buffer at pH 7.5 containing 150 mM sodium chloride and 1 mM TCEP. For the different conditions, either 500 µM IP6, 12 mM NM, or a combination of the two were used. The xanthine compounds were tested at 500 µM, while NSA, due to limited solubility, was tested only at 200 µM, which is sufficient to saturate MLKL. Spectra were analyzed, and peaks were integrated in CcpNnmr analysis ([39]).

The subject of assay [2] is Jurkat FADD−/− cells. The experiment in a line: Jurkat FADD−/− necroptosis assay. It counts as cell-based. Conditions: Homo sapiens, 10 ng/mL huTNFα, 24 h, Cell Titer Glo viability, read-out: Jurkat NEC IC50. How it is done:
(§1) For the Jurkat FADD^−/− Necroptosis assay, compounds were serially diluted in 100% dimethyl sulfoxide (DMSO) (Sigma-Aldrich catalog no. 41641), and 250 nL was transferred to a sterile 384-well microtiter plate (PerkinElmer catalog no. 6007688) via Echo liquid handler (LABCYTE). Five thousand Jurkat FADD ^−/− cells (ATCC catalog no. CRL-2572) in 20 µL of modified Roswell Park Memorial Institute medium (Gibco catalog no. 10491), 10% fetal calf serum (Gibco catalog no. 100500), 1x Anti/Anti (Gibco catalog no. 15240-062), 1x L-Glutamax (Gibco catalog no. 35050-087), and 1% PenStrep (SIGMA catalog no. P4333) were seeded into each well of the prepared assay plate with compound. Cells and compounds were incubated for 30 min at 37 °C (humidified incubator with 5% CO2). After incubation, 5 µL of recombinant human TNFα (huTNFα) (Biotrend catalog no. cyt-223; 10 ng/mL final concentration [f.c.]) was added to the cells, followed by an incubation of 24 h at 37 °C. Following the incubation, the experimental plates were equilibrated to room temperature (30 min) before 25 µL of Cell Titer Glo Luminescent Cell Viability Assay System reagent (Promega catalog no. G7571) was added to the plate wells, incubated at room temperature for ∼10 min. After incubation, the samples were analyzed for luminescence by using an Envision reader (PerkinElmer).
(§2) Each assay plate contained wells with “high” and “low” controls. High controls (100% CTL) were defined as cells treated with DMSO, and low controls (0% CTL) were defined as cells treated with 10 ng/mL recombinant huTNFα. IC50 values were calculated based on the percentage of control values using a four-parameter-fitting model.
(§3) All cellular assays were done for Cpd 1, Cpd 2, Cpd 3, Cpd 4, and Cpd 5 in duplicate and in quadruplet for NSA.

For assay [3], the system named is Jurkat FADD−/− cells. Kind of assay: Jurkat FADD−/− cytotox assay. It counts as cell-based. Conditions: Homo sapiens, without huTNFα, Cell Titer Glo viability, read-out: Jurkat TOX IC50. As to the method:
as §1
(§4) MLKL antagonists were tested in cytotox assays by using Jurkat FADD^−/− and U937 cells according to the assay procedures described for the necroptosis assays, but without treatment with recombinant huTNFα and/or zVAD-fmk. High controls (100% CTL, no effect) were defined as cells treated with DMSO, and low controls (0% CTL) were defined as medium without cells (0% CTL, maximal effect).
as §3
In general terms: Cellular ATP, detected with luciferase, serves as a proxy for viable cell number.

Assay [4] has as its system U937 cells. The experiment in a line: U937 necroptosis assay. The format is cell-based. Conditions: Homo sapiens, U-937, huTNFα plus 10 µM zVAD-fmk, read-out: U937 NEC IC50. How it is done: as §1, §2
(§5) MLKL antagonists were also evaluated in a necroptosis assay with U937 cells ([26]) (ATCC catalog no. CRL-1593.2). The assay procedure with U937 cells was as described for the Jurakt FADD^−/− necroptosis assay with the following modifications: 8,000 cells were seeded per well, and, in addition to the recombinant huTNFα, cells were also incubated in the presence of 10 µM (f.c.) carbobenzoxy-valyl-alanyl-aspartyl-[O-methyl]-fluoromethylketone (zVAD-fmk) (Enzo Life Sciences catalog no. ALX-260-020). Low controls (0% CTL) were defined as cells treated with 100 ng/mL recombinant huTNFα plus 10 µM zVAD-fmk.
as §3

In assay [5] the test system is U937 cells. The experiment in a line: U937 apoptosis assay. The format is cell-based. Conditions: Homo sapiens, U-937, 100 ng/mL huTNFα plus 3 µM NSA, read-out: U937 APOP IC50. How it is done:
as §5
Furthermore, MLKL antagonists were tested in a U937 apoptosis assay in the presence of 3 µM (f.c.) NSA (Tocris catalog no. 5025) and 100 ng/mL (f.c.) recombinant huTNFα in the same way as described for the U937 necroptosis assay. Low controls (0% CTL) were defined as cells treated with 100 ng/mL recombinant huTNFα plus 3 µM NSA.
as §3

The subject of assay [6] is U937 cells. Kind of assay: U937 cytotox assay. The format is cell-based. Conditions: Homo sapiens, U-937, without huTNFα and zVAD-fmk, read-out: U937 TOX IC50. How it is done:
as §5, §4, §3

The subject of assay [7] is C86S-mutated MLKL. Conditions: cited from earlier work.

As for `CCCCCCCCCO[C@@H]1O[C@H](CO)[C@@H](O[C@H]2O[C@H](CO)[C@@H](O)[C@H](O)[C@H]2O)[C@H](O)[C@H]1O` [NM, β-D-nonylmaltoside], the “Population of the activated state (pact), α-helix 6 detached” value in assay [1] (WT) stood at 1%.
For the compound `Cn1c(=O)c2c(nc([S+](C)[O-])n2C)n(C)c1=O` (centres unmarked) [Cpd 4], the IC50 is 5.24 µM in assay [2]; more than 100 µM in assay [3]; 3.17 µM in assay [4]; more than 100 µM in assay [5]; more than 100 µM in assay [6]. Moreover, in assay [1] (WT), the “Inhibitory effect on MLKL activation (α-helix 6 detachment), in words” value (from here on “Inhibitory effect on MLKL activation”) is “significantly reduced”.
As for `COc1nccnc1NS(=O)(=O)c1ccc(NC(=O)/C=C/c2ccc([N+](=O)[O-])s2)cc1` [NSA, Necrosulfonamide], the 50% inhibitory concentration (IC50) in assay [2] was 1.4 µM; in assay [3], 6.2 µM; in assay [4], 0.454 µM; in assay [5], more than 100 µM; in assay [6] it was 14.7 µM. The “Effect on α-helix 6 detachment, in words” value in assay [1] (WT MLKL:NSA complex (200 µM NSA), addition of 12 mM NM and 500 µM IP6) was “complete population shift to the active α-helix detached state”. In assay [1] (WT, compound alone (Cpd 3 500 µM, NSA 200 µM), no NM/IP6), the “Induction of the active state by compound alone” value was “α-helix 6 remains in the attached auto-inhibitory state”.
Turning to `Cn1c(=O)c2c(nc(S(C)(=O)=O)n2C)n(C)c1=O` [Cpd 1], the IC50 in assay [2] is 0.574 µM; in assay [3], 56.3 µM; in assay [4], 0.312 µM; in assay [5] it was more than 100 µM; in assay [6], more than 100 µM. Also, in assay [1] (WT), the “Inhibitory effect on MLKL activation” value is recorded as “even less activated”. The “Activity in MLKL knockout cells transfected with C86S-mutated MLKL” value in assay [7] is reported as “hampered”.
Turning to `COCCOCn1c(S(C)(=O)=O)nc2c1c(=O)n(C)c(=O)n2C` [Cpd 2], the IC50 was 0.069 µM in assay [2]; 3.83 µM in assay [3]; 0.042 µM in assay [4]; more than 100 µM in assay [5]; 4.38 µM in assay [6]. Moreover, the “Inhibitory effect on MLKL activation” value in assay [1] (WT) is recorded as “even less activated”. The “Activity in MLKL knockout cells transfected with C86S-mutated MLKL” value in assay [7] is listed as “hampered”.
For `O=P(O)(O)O[C@H]1[C@H](OP(=O)(O)O)[C@@H](OP(=O)(O)O)[C@H](OP(=O)(O)O)[C@@H](OP(=O)(O)O)[C@H]1OP(=O)(O)O` [IP6, phytic acid], in assay [1] (WT), the “Population of the activated state (pact), α-helix 6 detached” value was 4%.
For the compound `CSc1nc2c(c(=O)n(C)c(=O)n2C)n1C` [Cpd 5], the half-maximal inhibitory concentration (IC50) in assay [2], in assay [3], in assay [4], in assay [5] and in assay [6] was more than 100 µM in each case. In addition, the “Inhibitory effect on MLKL activation” value in assay [1] (WT) is given as “abolished”.

Usually IC50 stands for the concentration needed to halve the response being measured.
